Test results: patent US9463188B2, “Osteopontin production inhibitor containing dictyopyrone derivative or dihydrodictyopyrone derivative as active ingredient” (TOHOKU UNIVERSITY, priority 2013, dated 2016)

System: OPN production by human liver cancer-derived cell line HepG2
Assay: OPN production by HepG2 cells (Human Osteopontin Immunoassay, per mg protein)
Assay type: cell-based
Conditions: 2-day culture; for suppression of OPN production vs control group: significance level less than 1%
Experimental: The confirmation test was performed in the following manner. The compound 3 wad added to a culture liquid containing cells of a human non-small cell lung cancer-derived cell line A549 or a human liver cancer-derived cell line HepG2, and the amount of OPN in culture supernatant after 2-day culture was measured using Human Osteopontin Immunoassay kit (R&D systems) and compared with the OPN amount of a compound 3-free group (control group).
The compound 3 has also cell growth inhibitory effect. Therefore, in order to properly evaluate the OPN production-suppressing effect of the compound 3, 1×CCLR used in luciferase assay was added to cells remaining in each well after removal of culture supernatant to prepare a cell lysate, and the amount of protein in the cell lysate was measured using BCA Protein Assay Kit (Thermo Scientific). The influence of addition of the compound 3 on the amount of OPN production was evaluated by comparison of the amount of OPN per milligram of protein.
First, A549 cells or HepG2 cells were suspended in DMEM medium containing 10% FCS and 1% P/S at 4×10^4 cells/mL to obtain a cell suspension, and 500 μL of the cell suspension was dispensed into each well of a 24-well plate. In order to perform the test in triplicate, 3 wells were prepared for a control group and 3 wells were prepared for each test compound-treated group at each concentration. The 24-well plate was incubated in a CO2 incubator (at 37° C. and 5% CO2) for 24±4 hours.
The 3.75 mmol/L compound 3 solution or the 7.5 mmol/L compound 3 solution was added in an amount of 2 μL to each well in which HepG2 cells were cultured. Only DMSO was added to each control well in an amount of 2 μL.
The 24-well plate was rocked back and forth and side to side to mix the solution in each well, and was then incubated in a CO2 incubator (at 37° C. and 5% CO2) for 48±4 hours. Then, the total amount of culture supernatant was transferred into a 1.5 mL tube, and 500 μL of D-PBS(−) was added to each well in which cells are remained. […]

SMILES: CCCCCCCCCCCC(=O)[C@H]1C(=O)O[C@@H](C)C[C@@H]1C [Chemical formula 3]
- suppression of OPN production vs control group (15 μmol/L): significantly suppressed
- amount of OPN produced relative to control group (30 μmol/L): reduced to half or less
- suppression of OPN production vs control group (30 μmol/L): significantly suppressed
